{"source": "patent US6468969B1", "about": "“Inhibition of HIV-1 replication using d-amino acid peptides” (priority 1997, dated 2002)", "molecular_target": "proteinase K (Parengyodontium album, UniProt P06873)", "sequence (P06873 106-384)": "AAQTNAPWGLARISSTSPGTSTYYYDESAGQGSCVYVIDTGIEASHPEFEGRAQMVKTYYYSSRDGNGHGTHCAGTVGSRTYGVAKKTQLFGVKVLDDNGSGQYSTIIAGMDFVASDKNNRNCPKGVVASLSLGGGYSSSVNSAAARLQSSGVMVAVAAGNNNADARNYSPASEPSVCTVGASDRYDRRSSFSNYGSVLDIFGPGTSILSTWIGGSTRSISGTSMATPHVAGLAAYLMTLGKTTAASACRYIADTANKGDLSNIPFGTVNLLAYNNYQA", "experiment": "Proteinase K digestion of peptide-TAR RNA photocrosslink products", "settings": "very vigorous proteinase K digestion", "experimental": "For photochemical reactions, RNA duplex was prepared by hybridizing two strands ^24. Strand 1 of the duplex was 5′-end labeled with ^32P. Preformed RNA duplexes(0.02 μM) in the absence or presence of the peptide (0.1 μM) were irradiated ([…]) and analyzed by denaturing gels as described in Wang et al., Biochemistry 35, 6491-6499 (1996)."}
{"smiles": "CC[C@@H](C)[C@@H](NC(=O)CNC(=O)[C@@H](CC(C)C)NC(=O)[C@@H](C)NC(=O)[C@@H](CCCCN)NC(=O)[C@H](NC(=O)[C@H](NC(=O)[C@@H](Cc1ccccc1)NC(=O)[C@H](N)CS)[C@H](C)O)[C@H](C)O)C(=O)N[C@H](CO)C(=O)N[C@H](Cc1ccc(O)cc1)C(=O)NCC(=O)N[C@H](CCCNC(=N)N)C(=O)N[C@H](CCCCN)C(=O)N[C@H](CCCCN)C(=O)N[C@H](CCCNC(=N)N)C(=O)N[C@H](CCCNC(=N)N)C(=O)N[C@H](CCC(N)=O)C(=O)N[C@H](CCCNC(=N)N)C(=O)N[C@H](CCCNC(=N)N)C(=O)N[C@H](CCCNC(=N)N)C(=O)N1CCC[C@@H]1C(=O)N1CCC[C@@H]1C(=O)N[C@H](CCC(N)=O)C(=O)NCC(=O)N[C@H](CO)C(=O)N[C@H](CCC(N)=O)C(=O)N[C@@H](C(=O)N[C@H](Cc1c[nH]cn1)C(=O)N[C@H](CCC(N)=O)C(=O)N[C@@H](C(=O)N[C@H](CO)C(=O)N[C@H](CC(C)C)C(=O)N[C@H](CO)C(=O)N[C@H](CCCCN)C(=O)N[C@H](CCC(N)=O)C(=O)O)C(C)C)[C@H](C)O", "note": "[D-Tat (37-72) peptide, D-Cys-D-Phe-D-Thr-D-Thr-D-Lys-D-Ala-D-Leu-D-Gly-D-Ile-D-Ser-D-Tyr-D-Gly-D-Arg-D-Lys-D-Lys-D-Arg-D-Arg-D-Gln-D-Arg-D-Arg-D-Arg-D-Pro-D-Pro-D-Gln-D-Gly-D-Ser-D-Gln-D-Thr-D-His-D-Gln-D-Val-D-Ser-D-Leu-D-Ser-D-Lys-D-Gln]", "values": [{"measurement": "protease stability of peptide-RNA crosslink products", "result": "completely stable"}]}
